Test results: US11618747B2, “LXR modulators with bicyclic core moiety” (OrsoBio, Inc., priority 2018, dated 2023)

Key:
[1] = biological target: T1, LXRβ ligand-binding domain (Homo sapiens, UniProt P55055, DUP175-175); experiment: TR-FRETβ activity assay (NCoA3 coactivator peptide recruitment); assay type: biochemical; conditions: TR-FRET, 1 μM 24(S)-25-epoxycholesterol prestimulation; read-out: FRETβ (EC50 range)
T1 construct: amino acids 156-461; NP009052; made in house; host or cells: E. coli
T1 sequence (P55055 with tags, fused parts or gaps DUP175-175 limits assumed): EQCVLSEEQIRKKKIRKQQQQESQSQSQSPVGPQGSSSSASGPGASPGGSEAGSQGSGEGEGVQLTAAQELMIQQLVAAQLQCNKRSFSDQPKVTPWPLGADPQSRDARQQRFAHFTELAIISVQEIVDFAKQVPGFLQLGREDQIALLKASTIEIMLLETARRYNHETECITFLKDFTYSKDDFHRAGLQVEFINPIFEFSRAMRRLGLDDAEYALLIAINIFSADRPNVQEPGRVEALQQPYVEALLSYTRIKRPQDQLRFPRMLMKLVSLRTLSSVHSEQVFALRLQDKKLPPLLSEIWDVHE
Procedure, shortened: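 Inverse agonism assessed by loss of coactivator recruitment, read as TR-FRET 665/615 nm after 1 h equilibration at 4 °C, in triplicate. Ten-point titration from 50 μM to 0.002 μM against LXRβ LBD (76 nM, GST fusion) prestimulated with 1 μM 24(S)-25-epoxycholesterol, with 400 nM NCoA3 peptide, pH 6.8. Sulfonyl acetic acids kept as 20 mM DMSO stocks with 100 mM TFA.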

full length (FL) LXRβ = biological target: T2, full length (FL) LXRβ (Homo sapiens, UniProt P55055, DUP175-175); experiment: LXR Gal4 reporter transient transfection assay (FL-M2H Gal4β); assay type: cell-based; conditions: HEK293 cells, full length LXRβ; read-out: FL-M2H Gal4β (EC50 range)
T2 construct: the full length (FL) proteins of LXRα (amino acids 1-447); NP005684; NP009052; expressed in transfected cells; host or cells: HEK293
T2 sequence (P55055 with tags, fused parts or gaps DUP175-175): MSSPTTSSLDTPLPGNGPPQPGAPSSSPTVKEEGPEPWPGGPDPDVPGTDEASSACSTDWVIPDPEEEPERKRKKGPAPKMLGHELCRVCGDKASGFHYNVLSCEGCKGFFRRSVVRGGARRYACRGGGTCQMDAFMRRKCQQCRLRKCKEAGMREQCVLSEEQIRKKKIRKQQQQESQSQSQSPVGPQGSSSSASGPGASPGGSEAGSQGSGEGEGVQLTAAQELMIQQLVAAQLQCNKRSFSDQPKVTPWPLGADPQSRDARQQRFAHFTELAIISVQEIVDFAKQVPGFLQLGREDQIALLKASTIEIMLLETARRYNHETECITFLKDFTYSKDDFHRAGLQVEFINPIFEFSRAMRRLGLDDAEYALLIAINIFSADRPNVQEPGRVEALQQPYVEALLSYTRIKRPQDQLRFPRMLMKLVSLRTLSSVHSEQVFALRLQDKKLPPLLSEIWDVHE
Procedure, shortened: (§1)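 Luminescence readout: Firefly luciferase driven by GAL4 response elements reports LXR–cofactor interaction, normalised against cotransfected Renilla luciferase. The system used HEK293 cells expressing LXR full length or ligand-binding domain fused to the NFkB activation domain, with SRC1 or NCoR domains on GAL4 DBD; compound exposure was 16 h.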

full length (FL) LXRα = biological target: T3, full length (FL) LXRα (Homo sapiens, UniProt Q13133); experiment: LXR Gal4 reporter transient transfection assay (FL-M2H Gal4α); assay type: cell-based; conditions: HEK293 cells, full length LXRα; read-out: FL-M2H Gal4α (EC50 range)
T3 construct: the full length (FL) proteins of LXRα (amino acids 1-447); NP005684; expressed in transfected cells; host or cells: HEK293
T3 sequence (Q13133 1-447): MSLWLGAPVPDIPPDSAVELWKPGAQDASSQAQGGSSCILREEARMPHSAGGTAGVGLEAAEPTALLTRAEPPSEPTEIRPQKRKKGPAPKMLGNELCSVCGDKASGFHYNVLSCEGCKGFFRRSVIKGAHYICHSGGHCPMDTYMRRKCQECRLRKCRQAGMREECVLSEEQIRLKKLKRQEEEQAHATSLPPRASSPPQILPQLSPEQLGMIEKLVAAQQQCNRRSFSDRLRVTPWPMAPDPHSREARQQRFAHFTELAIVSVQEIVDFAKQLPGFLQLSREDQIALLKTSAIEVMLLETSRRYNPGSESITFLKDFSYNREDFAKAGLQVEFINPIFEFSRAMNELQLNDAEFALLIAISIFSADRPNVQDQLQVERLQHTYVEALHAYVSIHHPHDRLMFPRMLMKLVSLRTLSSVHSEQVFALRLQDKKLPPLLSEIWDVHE
Procedure, shortened: as §1

Row | SMILES | EC50 [1] | EC50 (full length (FL) LXRβ) | EC50 (full length (FL) LXRα)
1 | N#Cc1cccc(C#N)c1-c1c(-c2cccc(-c3c(F)cc(OCC(=O)O)cc3F)c2)n(S(=O)(=O)c2ccc(C(F)F)cc2)c2ccc(F)cc12 [3/71] | < 0.1 µM | < 0.1 µM | < 0.1 µM
2 | O=C(O)c1ccc(-c2cccc(-c3c(-c4ncccc4N4CC(O)C4)c4cc(F)ccc4n3S(=O)(=O)c3ccc(C(F)F)cc3)c2)c(Cl)c1 [5/10] | 1 to 10 µM | 0.1 to 1 µM | 0.1 to 1 µM
3 | Cc1ccc(S(=O)(=O)n2c(-c3cccc(C45CC(C(=O)O)(C4)C5)c3)c(-c3ccsc3C#N)c3ccccc32)cc1 [5/2] | 0.1 to 1 µM | 0.1 to 1 µM | 0.1 to 1 µM
4 | Cc1ccc(S(=O)(=O)n2c(-c3cccc(N4CCC(C)(C(=O)O)CC4)c3)c(-c3ccsc3C#N)c3cc(F)ccc32)cc1 [3/50] | 0.1 to 1 µM | < 0.1 µM | < 0.1 µM
5 | COc1cc(F)cc2c(-c3ccsc3C#N)c(-c3cccc(-c4ccc(C(=O)O)cc4)c3)n(S(=O)(=O)c3ccc(C)cc3)c12 [3/53] | < 0.1 µM | < 0.1 µM | < 0.1 µM
6 | Cc1ccc(S(=O)(=O)n2c(-c3ccnc(-c4ccc(C(=O)O)cc4)c3)c(-c3ccsc3C#N)c3cc(F)ccc32)cc1 [5/6] | 0.1 to 1 µM | < 0.1 µM | < 0.1 µM
7 | O=C(O)c1ccc(-c2cccc(-c3c(-c4cccc5oncc45)c4cc(F)ccc4n3S(=O)(=O)c3ccc(C(F)F)cc3)c2)c(Cl)c1 [3/69] | 0.1 to 1 µM | 0.1 to 1 µM | 0.1 to 1 µM
8 | O=C(O)c1ccc(-c2cccc(-c3c(-c4ncccc4OC(F)F)c4cc(F)ccc4n3S(=O)(=O)c3ccc(C(F)F)cc3)c2)c(Cl)c1 [11/41] | < 0.1 µM | < 0.1 µM | < 0.1 µM
9 | N#Cc1ccccc1-c1c(-c2cccc(-c3ccc(C(=O)O)cc3F)c2)n(S(=O)(=O)c2ccc(C(F)F)cc2)c2ccc(F)cc12 [11/31] | < 0.1 µM | < 0.1 µM | < 0.1 µM
10 | Cc1ccc(S(=O)(=O)n2c(-c3cccc(-c4ccc(C(=O)NS(C)(=O)=O)cc4Cl)c3)c(-c3ccsc3C#N)c3cc(F)ccc32)cc1 [32/4] | < 0.1 µM | < 0.1 µM | < 0.1 µM
11 | Cc1ccc(S(=O)(=O)n2c(-c3cccc(-c4ccc(C(=O)O)cc4Cl)c3)c(-c3c(C)cccc3C#N)c3cc(F)ccc32)cc1 [11/6] | < 0.1 µM | < 0.1 µM | < 0.1 µM
12 | Cc1n[nH]c(C)c1-c1c(-c2cccc(-c3ccc(C(=O)O)cc3Cl)c2)n(S(=O)(=O)c2ccc(C(F)F)cc2)c2ccc(F)cc12 [11/24] | 0.1 to 1 µM | 0.1 to 1 µM | 0.1 to 1 µM
13 | COc1c(C(=O)O)ccc(-c2cccc(-c3c(-c4ccsc4C#N)c4cc(F)ccc4n3S(=O)(=O)c3ccc(C)cc3)c2)c1Cl [12/5] | < 0.1 µM | < 0.1 µM | < 0.1 µM
14 | N#Cc1cccc(C#N)c1-c1c(-c2cccc(-c3ccc(C(=O)O)cc3Cl)c2)n(S(=O)(=O)C2CC3CCC2C3)c2ccc(F)cc12 (stereo not drawn) [11/66] | 0.1 to 1 µM | < 0.1 µM | < 0.1 µM
15 | N#Cc1sccc1-c1c(-c2cccc(-c3ccc(C(=O)O)cc3)c2)n(S(=O)(=O)c2ccc3c(c2)CCC3)c2ccc(F)cc12 [23/3] | 0.1 to 1 µM | < 0.1 µM | < 0.1 µM
16 | N#Cc1cccc(C#N)c1-c1c(-c2cccc(N3CC(C(=O)O)C3)c2)n(S(=O)(=O)c2ccc(C(F)F)cc2)c2ccc(F)cc12 [3/67] | 0.1 to 1 µM | 0.1 to 1 µM | 0.1 to 1 µM
17 | Cc1ccc(S(=O)(=O)n2c(-c3cccc(C4(C)CC4C(=O)O)c3)c(-c3ccsc3C#N)c3cc(F)ccc32)cc1 (stereo not drawn) [3/2] | 1 to 10 µM | < 0.1 µM | 0.1 to 1 µM
18 | N#Cc1scnc1-c1c(-c2cccc(-c3cc(F)c(C(=O)O)cc3Cl)c2)n(S(=O)(=O)c2ccc(C(F)F)cc2)c2ccc(F)cc12 [11/9] | < 0.1 µM | < 0.1 µM | < 0.1 µM
19 | COc1cc(C(=O)O)ccc1-c1cccc(-c2c(-c3ccccc3C#N)c3cc(F)ccc3n2S(=O)(=O)c2ccc(C(F)F)cc2)c1 [11/29] | < 0.1 µM | < 0.1 µM | < 0.1 µM
20 | Cc1ccc(S(=O)(=O)n2c(-c3cccc(-c4cc(C(=O)O)nn4C)c3)c(-c3ccsc3C#N)c3cc(F)ccc32)cc1 [12/7] | 0.1 to 1 µM | 0.1 to 1 µM | 0.1 to 1 µM
21 | N#Cc1cc(C(=O)O)ccc1-c1cccc(-c2c(-c3ccccc3C#N)c3cc(F)ccc3n2S(=O)(=O)c2ccc(C(F)F)cc2)c1 [11/30] | < 0.1 µM | < 0.1 µM | < 0.1 µM
22 | CCc1ccc(S(=O)(=O)n2c(-c3cccc(N4CC(C(=O)O)C4)c3)c(-c3ccsc3C#N)c3cc(F)ccc32)cc1 [3/10] | 0.1 to 1 µM | < 0.1 µM | 0.1 to 1 µM
23 | COc1sccc1-c1c(-c2cccc(N3CC(C(=O)O)C3)c2)n(S(=O)(=O)c2ccc(C)cc2)c2ccc(F)cc12 [3/3] | 1 to 10 µM | 0.1 to 1 µM | 0.1 to 1 µM
24 | O=C(O)c1ccc(-c2cccc(-c3c(-c4ccccc4C4COC4)c4cnccc4n3S(=O)(=O)c3ccc(C(F)F)cc3)c2)c(Cl)c1 [8/3] | 0.1 to 1 µM | < 0.1 µM | 0.1 to 1 µM
25 | CC1CCN(S(=O)(=O)n2c(-c3cccc(N4CC(C(=O)O)C4)c3)c(-c3ccsc3C#N)c3cc(F)ccc32)CC1 [3/36] | 1 to 10 µM | 0.1 to 1 µM | 0.1 to 1 µM
26 | Cc1ccc(S(=O)(=O)n2c(-c3cccc(-c4ccc(C(=O)O)cc4Cl)c3)c(-c3cccc(F)c3C#N)c3cc(F)ccc32)cc1 [11/1] | < 0.1 µM | < 0.1 µM | < 0.1 µM
27 | Cc1ccc(S(=O)(=O)n2c(-c3cccc(-c4ccc(C(=O)O)c(Cl)c4)c3)c(-c3ccsc3C#N)c3cc(F)ccc32)cc1 [3/49] | 0.1 to 1 µM | < 0.1 µM | < 0.1 µM
28 | N#CC1=C(c2c(-c3cccc(-c4ccc(C(=O)O)cc4Cl)c3)n(S(=O)(=O)c3ccc(C(F)F)cc3)c3ccc(F)cc23)CCCC1 [11/42] | > 10 µM | 0.1 to 1 µM | 0.1 to 1 µM
